Source: publication PMC6832920, “Synthesis, Docking Studies, and In Vitro Evaluation of Some Novel Thienopyridines and Fused Thienopyridine–Quinolines as Antibacterial Agents and DNA Gyrase Inhibitors” (Molecules, 2019)
≈ marks a conversion by molar mass, not a printed value.

Experiments:
Escherichia coli 8739 [1] = test: agar disc-diffusion antibacterial assay; format: cell-based; conditions: E. coli 8739, disc loaded with 100 μg, 37 °C, 24 h, read-out: diameter of inhibition zone
Description: (§1) The clinical control strains of Gram-negative bacteria (Escherichia coli 8739, Salmonella typhimurium 14028, Pseudomonas aeruginosa 27853) and Gram-positive bacteria (Bacillus subtilis 6633, Bacillus cereus 33018, Staphylococcus aureus 25923), were obtained from microbial inoculums by subculturing microorganisms into nutrient broth (NB) at 37 °C for 18 h, and were adjusted to 0.125 A° at 625 nm (equivalent to a McFarland 0.5) in 2-fold NB. A 100 μL measure of NB containing each test microorganism was added to the sterile Petri dishes. Antibacterial testing was carried out on all compounds (3a,b–14) using the agar disc-diffusion method [40]. Sterile nutrients were inoculated with 100 μL cell suspension of the chosen test microorganism and poured into Petri dishes (20 cm diameter). Filter paper discs (Whatman, No.3, diameter 5 mm) were loaded with 10 μL containing 100 μg of the tested compounds, as well as the standard drug. Composite compound disks were placed on the surface of inoculated agar plates and kept at low temperatures before incubation in order to support the swelling and diffusion of the microbial growth. The plates were incubated at 37 °C in the incubator. Experiments were performed in duplicate and the diameters of inhibition zones were measured after 24 h. A diameter of inhibition zone (DIZ) assay was performed to evaluate the antimicrobial potential of the compounds against the tested organisms compared with reference antibiotics.

[2] = system: Salmonella typhimurium 14028; test: agar disc-diffusion antibacterial assay; format: cell-based; conditions: Salmonella enterica; S. typhimurium 14028; disc loaded with 100 μg; 37 °C, 24 h; read-out: diameter of inhibition zone
Description: (§2) The clinical control strains of Gram-negative bacteria (Escherichia coli 8739, Salmonella typhimurium 14028, Pseudomonas aeruginosa 27853) and Gram-positive bacteria (Bacillus subtilis 6633, Bacillus cereus 33018, Staphylococcus aureus 25923), were obtained from microbial inoculums by subculturing microorganisms into nutrient broth (NB) at 37 °C for 18 h, and were adjusted to 0.125 A° at 625 nm (equivalent to a McFarland 0.5) in 2-fold NB. A 100 μL measure of NB containing each test microorganism was added to the sterile Petri dishes. Antibacterial testing was carried out on all compounds (3a,b–14) using the agar disc-diffusion method [40]. Sterile nutrients were inoculated with 100 μL cell suspension of the chosen test microorganism and poured into Petri dishes (20 cm diameter). Filter paper discs (Whatman, No.3, diameter 5 mm) were loaded with 10 μL containing 100 μg of the tested compounds, as well as the standard drug. Composite compound disks were placed on the surface of inoculated agar plates and kept at low temperatures before incubation in order to support the swelling and diffusion of the microbial growth. The plates were incubated at 37 °C in the incubator. Experiments were performed in duplicate and the diameters of inhibition zones were measured after 24 h.

[3] = system: Pseudomonas aeruginosa 27853; test: agar disc-diffusion antibacterial assay; format: cell-based; conditions: P. aeruginosa 27853, disc loaded with 100 μg, 37 °C, 24 h, read-out: diameter of inhibition zone
Description: as §1

Bacillus subtilis 6633 [4] = test: agar disc-diffusion antibacterial assay; format: cell-based; conditions: B. subtilis 6633, disc loaded with 100 μg, 37 °C, 24 h, read-out: diameter of inhibition zone
Description: (§3) A 100 μL measure of NB containing each test microorganism was added to the sterile Petri dishes. Antibacterial testing was carried out on all compounds (3a,b–14) using the agar disc-diffusion method [40]. Sterile nutrients were inoculated with 100 μL cell suspension of the chosen test microorganism and poured into Petri dishes (20 cm diameter). Filter paper discs (Whatman, No.3, diameter 5 mm) were loaded with 10 μL containing 100 μg of the tested compounds, as well as the standard drug. Composite compound disks were placed on the surface of inoculated agar plates and kept at low temperatures before incubation in order to support the swelling and diffusion of the microbial growth. The plates were incubated at 37 °C in the incubator. Experiments were performed in duplicate and the diameters of inhibition zones were measured after 24 h. A diameter of inhibition zone (DIZ) assay was performed to evaluate the antimicrobial potential of the compounds against the tested organisms compared with reference antibiotics.

Bacillus cereus 33018 [5] = test: agar disc-diffusion antibacterial assay; format: cell-based; conditions: B. cereus 33018, disc loaded with 100 μg, 37 °C, 24 h, read-out: diameter of inhibition zone
Description: as §3

[6] = system: Staphylococcus aureus 25923; test: agar disc-diffusion antibacterial assay; format: cell-based; conditions: S. aureus 25923, disc loaded with 100 μg, 37 °C, 24 h, read-out: diameter of inhibition zone
Description: as §1

Escherichia coli 8739 [7] = test: MIC determination by dilution procedure; format: cell-based; conditions: E. coli 8739, dilutions 125-1.95 μg/mL, read-out: minimum inhibitory concentration (MIC)
[8] = system: Salmonella typhimurium 14028; test: MIC determination by dilution procedure; format: cell-based; conditions: Salmonella enterica; S. typhimurium 14028; dilutions 125-1.95 μg/mL; read-out: minimum inhibitory concentration (MIC)
Description: as §2

[9] = system: Pseudomonas aeruginosa 27853; test: MIC determination by dilution procedure; format: cell-based; conditions: Pseudomonas aeruginosa, 27853, P. aeruginosa 27853; dilutions 125-1.95 μg/mL; read-out: minimum inhibitory concentration (MIC)
Bacillus subtilis 6633 [10] = test: MIC determination by dilution procedure; format: cell-based; conditions: B. subtilis 6633, dilutions 125-1.95 μg/mL, read-out: minimum inhibitory concentration (MIC)
Description: as §3

Bacillus cereus 33018 [11] = test: MIC determination by dilution procedure; format: cell-based; conditions: B. cereus 33018, dilutions 125-1.95 μg/mL, read-out: minimum inhibitory concentration (MIC)
Description: as §3

[12] = system: Staphylococcus aureus 25923; test: MIC determination by dilution procedure; format: cell-based; conditions: Staphylococcus aureus, 25923, S. aureus 25923; dilutions 125-1.95 μg/mL; read-out: minimum inhibitory concentration (MIC)
Description: as §3

DNA gyrase from E. coli = target: T1, DNA gyrase from E. coli (Escherichia coli, UniProt P0AES6); test: Escherichia coli DNA gyrase supercoiling inhibition assay; format: biochemical
T1 construct: purchased TopoGEN

[13] = system: methicillin-resistant Staphylococcus aureus (MRSA); test: inhibition zones against MRSA (disc diffusion); format: cell-based

Work on `Nc1c2c(nc3c1sc1nc(-c4ccco4)cc(-c4cccs4)c13)CCCC2` [Compound 5b, 2-(Furan-2-yl)-4-(thiophen-2-yl)-6,7,8,9-tetrahydropyrido[3′,2′:4,5]thieno[3,2-b]quinolin-10-amine] yielded a zone of inhibition at 100 µg/disc (Escherichia coli 8739 [1]) of 15 mm, a zone of inhibition at 100 µg/disc [2] of 17 mm and a zone of inhibition at 100 µg/disc [3] of 14 mm. For the same compound, the zone of inhibition at 100 µg/disc (Bacillus subtilis 6633 [4]) was 12 mm, the zone of inhibition at 100 µg/disc (Bacillus cereus 33018 [5]) was 16 mm and the zone of inhibition at 100 µg/disc [6] was 13 mm. It also gave an MIC (Escherichia coli 8739 [7]) of 15.6 µg/mL (≈ 38.7 µM), an MIC [8] of 15.6 µg/mL (≈ 38.7 µM) and an MIC [9] of 15.6 µg/mL (≈ 38.7 µM). For the same compound, the MIC (Bacillus subtilis 6633 [10]) was 31.2 µg/mL (≈ 77.4 µM), the MIC (Bacillus cereus 33018 [11]) was 15.6 µg/mL (≈ 38.7 µM) and the MIC [12] was 31.2 µg/mL (≈ 77.4 µM). It also gave an IC50 (DNA gyrase from E. coli) of 16.7 ± 0.88 µM and a melting point of 248 °C.
In the case of `NC(=O)c1sc2nc(-c3ccco3)cc(-c3cccs3)c2c1N` [Compound 3b, 3-Amino-6-(furan-2-yl)-4-(thiophen-2-yl)thieno[2,3-b]pyridine-2-carboxamide], the zone of inhibition at 100 µg/disc (Escherichia coli 8739 [1]) is reported as 19 mm, the zone of inhibition at 100 µg/disc [2] is reported as 18 mm and the zone of inhibition at 100 µg/disc [3] is reported as 13 mm. For the same compound, the zone of inhibition at 100 µg/disc (Bacillus subtilis 6633 [4]) was 12 mm, the zone of inhibition at 100 µg/disc (Bacillus cereus 33018 [5]) was 18 mm and the zone of inhibition at 100 µg/disc [6] was 13 mm. For the same compound, the MIC (Escherichia coli 8739 [7]) was 15.6 µg/mL (≈ 45.8 µM), the MIC [8] was 15.6 µg/mL (≈ 45.8 µM) and the MIC [9] was 31.2 µg/mL (≈ 91.5 µM). The MIC (Bacillus subtilis 6633 [10]) was 31.2 µg/mL (≈ 91.5 µM), the MIC (Bacillus cereus 33018 [11]) was 15.6 µg/mL (≈ 45.8 µM) and the MIC [12] was 31.2 µg/mL (≈ 91.5 µM). For the same compound, the IC50 (DNA gyrase from E. coli) was 4.5 ± 0.32 µM and the melting point was 253 °C.
`COc1ccc(-c2cc(-c3ccco3)nc3sc4c(NC(=O)CNN)c5c(nc4c23)CCCC5)cc1` [Compound 7a, N-(2-(furan-2-yl)-4-(4-methoxyphenyl)-6,7,8,9-tetrahydropyrido[3′,2′:4,5]thieno[3,2-b]quinolin-10-yl)-2-hydrazinylacetamide] showed a zone of inhibition at 100 µg/disc (Escherichia coli 8739 [1]) of 16 mm, a zone of inhibition at 100 µg/disc [2] of 11 mm and a zone of inhibition at 100 µg/disc [3] of 11 mm. The zone of inhibition at 100 µg/disc (Bacillus subtilis 6633 [4]) was 17 mm, the zone of inhibition at 100 µg/disc (Bacillus cereus 33018 [5]) was 15 mm and the zone of inhibition at 100 µg/disc [6] was 19 mm. It also gave an MIC (Escherichia coli 8739 [7]) of 15.6 µg/mL (≈ 31.3 µM), an MIC [8] of 31.2 µg/mL (≈ 62.6 µM) and an MIC [9] of 31.2 µg/mL (≈ 62.6 µM). For the same compound, the MIC (Bacillus subtilis 6633 [10]) was 15.6 µg/mL (≈ 31.3 µM), the MIC (Bacillus cereus 33018 [11]) was 15.6 µg/mL (≈ 31.3 µM) and the MIC [12] was 15.6 µg/mL (≈ 31.3 µM). The “zone of inhibition against MRSA” value [13] was 18 mm, the IC50 (DNA gyrase from E. coli) was 8.66 ± 0.61 µM and the melting point was 278 °C.
With `COc1ccc(-c2cc(-c3ccco3)nc3sc4c(N=Cc5cccs5)c5c(nc4c23)CCCC5)cc1` [Compound 12b, N-(2-(furan-2-yl)-4-(4-methoxyphenyl)-6,7,8,9-tetrahydropyrido[3′,2′:4,5]thieno[3,2-b]quinolin-10-yl)-1-(thiophen-2-yl)methanimine] the zone of inhibition at 100 µg/disc (Escherichia coli 8739 [1]) was 18 mm, the zone of inhibition at 100 µg/disc [2] was 16 mm and the zone of inhibition at 100 µg/disc [3] was 16 mm. It also gave a zone of inhibition at 100 µg/disc (Bacillus subtilis 6633 [4]) of 15 mm, a zone of inhibition at 100 µg/disc (Bacillus cereus 33018 [5]) of 15 mm and a zone of inhibition at 100 µg/disc [6] of 16 mm. For the same compound, the MIC (Escherichia coli 8739 [7]) was 15.6 µg/mL (≈ 30 µM), the MIC [8] was 15.6 µg/mL (≈ 30 µM) and the MIC [9] was 15.6 µg/mL (≈ 30 µM). For the same compound, the MIC (Bacillus subtilis 6633 [10]) was 15.6 µg/mL (≈ 30 µM), the MIC (Bacillus cereus 33018 [11]) was 15.6 µg/mL (≈ 30 µM) and the MIC [12] was 15.6 µg/mL (≈ 30 µM). The “zone of inhibition against MRSA” value [13] was 15 mm, the IC50 (DNA gyrase from E. coli) was 4.6 ± 0.28 µM and the melting point was 114 °C.
For `CC1=NN=C(Nc2c3c(nc4c2sc2nc(-c5ccco5)cc(-c5cccs5)c24)CCCC3)C1` [Compound 14, 2-(furan-2-yl)-N-(5-methyl-4H-pyrazol-3-yl) -4-(thiophen-2-yl)-6,7,8,9-tetrahydropyrido[3′,2′:4,5]thieno[3,2-b]quinolin-10-amine], the zone of inhibition at 100 µg/disc (Escherichia coli 8739 [1]) was 15 mm, the zone of inhibition at 100 µg/disc [2] was 12 mm and the zone of inhibition at 100 µg/disc [3] was 10 mm. It also gave a zone of inhibition at 100 µg/disc (Bacillus subtilis 6633 [4]) of 16 mm, a zone of inhibition at 100 µg/disc (Bacillus cereus 33018 [5]) of 17 mm and a zone of inhibition at 100 µg/disc [6] of 13 mm. The MIC (Escherichia coli 8739 [7]) was 15.6 µg/mL (≈ 32.3 µM), the MIC [8] was 31.2 µg/mL (≈ 64.6 µM) and the MIC [9] was 31.2 µg/mL (≈ 64.6 µM). For the same compound, the MIC (Bacillus subtilis 6633 [10]) was 15.6 µg/mL (≈ 32.3 µM), the MIC (Bacillus cereus 33018 [11]) was 15.6 µg/mL (≈ 32.3 µM) and the MIC [12] was 31.2 µg/mL (≈ 64.6 µM). It also gave an IC50 (DNA gyrase from E. coli) of 11.7 ± 0.93 µM and a melting point of 274 °C.
For `COc1ccc(-c2cc(-c3ccco3)nc3sc4c(NC(=O)CN5CCN(C)CC5)c5c(nc4c23)CCCC5)cc1` [Compound 9b, N-(2-(furan-2-yl)-4-(4-methoxyphenyl)-6,7,8,9-tetrahydropyrido[3′,2′:4,5]thieno[3,2-b]quinolin-10-yl)-2-(4-methylpiperazin-1-yl)acetamide], the zone of inhibition at 100 µg/disc (Escherichia coli 8739 [1]) was 20 mm, the zone of inhibition at 100 µg/disc [2] was 19 mm and the zone of inhibition at 100 µg/disc [3] was 18 mm. It also gave a zone of inhibition at 100 µg/disc (Bacillus subtilis 6633 [4]) of 15 mm, a zone of inhibition at 100 µg/disc (Bacillus cereus 33018 [5]) of 18 mm and a zone of inhibition at 100 µg/disc [6] of 16 mm. For the same compound, the MIC (Escherichia coli 8739 [7]) was 15.6 µg/mL (≈ 27.5 µM), the MIC [8] was 15.6 µg/mL (≈ 27.5 µM) and the MIC [9] was 15.6 µg/mL (≈ 27.5 µM). For the same compound, the MIC (Bacillus subtilis 6633 [10]) was 15.6 µg/mL (≈ 27.5 µM), the MIC (Bacillus cereus 33018 [11]) was 15.6 µg/mL (≈ 27.5 µM) and the MIC [12] was 15.6 µg/mL (≈ 27.5 µM). For the same compound, the “zone of inhibition against MRSA” value [13] was 14 mm, the IC50 (DNA gyrase from E. coli) was 5.78 ± 0.46 µM and the melting point was 158 to 159 °C.
`COc1ccc(-c2cc(-c3ccco3)nc3sc(C(N)=O)c(N)c23)cc1` [Compound 3a, 3-Amino-6-(furan-2-yl)-4-(4-methoxyphenyl)thieno[2,3-b]pyridine-2-carboxamide] showed a zone of inhibition at 100 µg/disc (Escherichia coli 8739 [1]) of 18 mm, a zone of inhibition at 100 µg/disc [2] of 15 mm and a zone of inhibition at 100 µg/disc [3] of 15 mm. For the same compound, the zone of inhibition at 100 µg/disc (Bacillus subtilis 6633 [4]) was 10 mm, the zone of inhibition at 100 µg/disc (Bacillus cereus 33018 [5]) was 13 mm and the zone of inhibition at 100 µg/disc [6] was 12 mm. The MIC (Escherichia coli 8739 [7]) was 15.6 µg/mL (≈ 42.8 µM), the MIC [8] was 15.6 µg/mL (≈ 42.8 µM) and the MIC [9] was 15.6 µg/mL (≈ 42.8 µM). The MIC (Bacillus subtilis 6633 [10]) was 31.2 µg/mL (≈ 85.5 µM), the MIC (Bacillus cereus 33018 [11]) was 31.2 µg/mL (≈ 85.5 µM) and the MIC [12] was 31.2 µg/mL (≈ 85.5 µM). The IC50 (DNA gyrase from E. coli) was 2.26 ± 0.19 µM.
For `CNC(C)C1CCC(N)C(OC2C(N)CC(N)C(OC3OCC(C)(O)C(NC)C3O)C2O)O1` (stereo not shown) [Gentamicin, gentamicin, reference compound], the “zone of inhibition against MRSA” value [13] was 15 mm.
In the case of `COc1ccc(-c2cc(-c3ccco3)nc3sc(C(N)=O)c(N=C4CCCCC4)c23)cc1` [Compound 4a, 3-(Cyclohexylideneamino)-6-(furan-2-yl)-4-(4-methoxyphenyl)thieno[2,3-b]pyridine-2-carboxamide], the zone of inhibition at 100 µg/disc (Escherichia coli 8739 [1]) is reported as 18 mm, the zone of inhibition at 100 µg/disc [2] is reported as 15 mm and the zone of inhibition at 100 µg/disc [3] is reported as 13 mm. It also gave a zone of inhibition at 100 µg/disc (Bacillus subtilis 6633 [4]) of 15 mm, a zone of inhibition at 100 µg/disc (Bacillus cereus 33018 [5]) of 16 mm and a zone of inhibition at 100 µg/disc [6] of 18 mm. The MIC (Escherichia coli 8739 [7]) was 15.6 µg/mL (≈ 35.1 µM), the MIC [8] was 15.6 µg/mL (≈ 35.1 µM) and the MIC [9] was 31.2 µg/mL (≈ 70.1 µM). The MIC (Bacillus subtilis 6633 [10]) was 15.6 µg/mL (≈ 35.1 µM), the MIC (Bacillus cereus 33018 [11]) was 15.6 µg/mL (≈ 35.1 µM) and the MIC [12] was 15.6 µg/mL (≈ 35.1 µM). The “zone of inhibition against MRSA” value [13] was 13 mm and the IC50 (DNA gyrase from E. coli) was 3.69 ± 0.15 µM.
